Where “and” joins values, the source holds several entries; their conditions need not be identical. Equal entries are not always repeated. Structures can show the parent of a compound that is named as a salt.
Legend:
Assay type in all cases: cell-based, mouse
TNF-α in Th9 cells = test: Flow cytometry of TNF-α in Th9 cells in vitro (Figure 3F, 5I, 7C, S8M-N); design: TNF expression in Th9 cells / TNF-α expression of Th9 cells: unit not given here; conditions: for TNF (flow cytometric quantification): Figure 5I, (n = 5); for TNF expression in Th9 cells: Figure 7C, one per column (n = 4); for TNF-α expression of Th9 cells: Supplemental Figure 8N
Description: Naive CD4^+ T cells were isolated from the spleens of C57BL/6J or CD45.1^+ OT-II mice using the MojoSort Mouse CD4 Naive T Cell Isolation Kit (BioLegend, catalog 480040), following the manufacturer’s protocol. Purified cells were cultured in RPMI-1640 medium supplemented with 10% FBS, 1% penicillin-streptomycin, and 0.1% β-mercaptoethanol (Gibco, catalog 21985023).
T cell polarization was initiated under plate-bound anti-CD3 (2 μg/mL, clone 17A2, BioXCell, catalog BE0002) and soluble anti-CD28 (1 μg/mL, clone 37.51, BioXCell, catalog BE0015-1) stimulation, with the addition of cytokines and neutralizing antibodies specific to each subset. For Th9 cells, these included IL-4 (10 ng/mL, Peprotech, catalog 400-04), TGF-β (1 ng/mL, EPOTO Biotech, catalog HF-2021), anti–IL-12 (5 μg/mL, clone C17.8, BioXCell, catalog BE0051), and anti–IFN-γ (10 μg/mL, clone XMG1.2, BioXCell, catalog BE0055); for Th1 cells, these included IL-12 (10 ng/mL, GenScript, catalog Z03211-50) and anti–IL-4 (5 μg/mL, clone 11B11, BioXCell, catalog BE0045); for Th2 cells, these included IL-4 (50 ng/mL), anti–IFN-γ (20 μg /mL), anti–IL-12 (5 μg/mL), Th17 cells: IL-6 (20 ng/mL, EPOTO Biotech, catalog MF-1006), TGF-β (1 ng/mL), IL-1β (10 ng/mL, Peprotech, catalog AF-211-11B), anti–IFN-γ (10 μg/mL), anti–IL-12 (5 μg/mL), and anti–IL-4 (5 μg/mL); and for Tregs, these included TGF-β (3 ng/mL). After 3 days of initial culture, cells were either collected for downstream assays or continued in extended culture with refreshed cytokines to maintain lineage commitment.
Details regarding staining panels (human and mouse), reagents (including clones and catalog numbers), acquisition settings, compensation/controls, and analysis procedures are provided in Supplemental Methods.
BioLegend, Cat. No. 422301 or Mouse TruStain FcX™, BioLegend, Cat. No. 101319) for 10 minutes at 4°C. For surface marker detection, cells were stained with fluorochrome-conjugated monoclonal antibodies in 96-well V-bottom plates and incubated on ice for 30 minutes. After staining, cells were washed twice and resuspended in FACS buffer for analysis.
Prior to intracellular cytokine staining, cells were restimulated for 4 hours with PMA (Absin, Cat. No. abs9107), ionomycin (Sigma-Aldrich, Cat. No. I0634), and brefeldin A (MedChemExpress, Cat. No. HY-16592). For intracellular cytokine staining, cells were first surface-stained as described above, then fixed and permeabilized using the BD Cytofix/Cytoperm™ kit (BD Biosciences, Cat. No. 554714) according to the manufacturer ’s protocol. Intracellular proteins were stained with directly conjugated antibodies targeting IL-9, IL-17a, IL-4, IFN-γ, TNF-α, FOXP3, p-ZAP70, Perforin, and […]
Antibodies used for mouse samples included those against IL-9 (PE, clone RM9A4, Biolegend, Cat. No. 514104), IFN-γ (PE, clone XMG1.2, Biolegend, Cat. No.
Cat. No. 103138), CD4 (APC/Cy7, clone E-AB-F1353UJ, Elabscience, Cat. No.
AF18028), CD8α (PerCP/Cy5.5, clone E-AB-F1104UJ, Elabscience, Cat. No. […]
clone E-AB-F1187UH, Elabscience, Cat. No. AF19854), TNF-α (BV421, clone MP6-XT22, Biolegend, Cat. No. 506328), FOXP3 (PE, clone FJK-16s, eBioscience, Cat. No.
Perforin (APC, clone S16009A, Biolegend, Cat. No. 154303) and Granzyme B (APC, […]
clone QA16A02, Biolegend, Cat. No. 372203). […]

[1] = test system: gene expression in Th9 cells; test: Bulk RNA-seq of Th9 cells (Figure 3A-D, 7G, S5B, S8G-H); design: key to Il13 expression (RNA-seq) / Batf expression (RNA-seq) / Il4 expression (RNA-seq) / Il5 expression (RNA-seq) / Il9 expression (RNA-seq) / Tnfsf15 expression (RNA-seq) / Tnf expression (RNA-seq) / Lta expression (RNA-seq) / Fasl expression (RNA-seq) / Tnfsf9 expression (RNA-seq) / Tnfsf14 expression (RNA-seq): FPKM (fragments per kilobase of transcript per million mapped reads); conditions: for cluster 2 genes (calcium ion transport, glycolysis, oxidative phosphorylation, ERK signaling) / lipid biosynthesis genes: RNA-seq clustering; for Fpkm of Slc2a1: Supplemental Figure 5B
Description: RNA integrity and concentration were assessed by Majorbio Technologies. RNA-seq libraries were constructed following standard Illumina protocols and sequenced using a paired-end strategy on an Illumina platform.
Raw sequencing reads were quality filtered and adapter trimmed using Trim Galore (v0.6.x) and then aligned to the mouse reference genome (GRCm38) with HISAT2 (v2.2.x). Gene-level quantification was performed using featureCounts (v2.0.x) to obtain raw read counts, which were subsequently normalized as fragments per kilobase of transcript per million mapped reads for exploratory analyses and data visualization.
Differential gene expression analysis was conducted using DESeq2 (v1.44.0) in R, with significance thresholds set at an adjusted P < 0.05 and absolute fold change ≥1.5. Visualization of transcriptomic profiles included volcano plots generated via ggplot2 (v3.5.1) and heatmaps rendered using pheatmap (v1.0.12), based on raw expression values.
Gene expression clustering was conducted using the R package ClusterGVis (v0.1.2).

[2] = test system: mitochondria of Th9 cells; test: Flow cytometry with MitoTracker Deep Red (Figure 4M, 5L, 7F, 7J); conditions: for Mito tracker (flow cytometric quantification): Figure 5L; for Mito tracker (flow cytometric quantification) / mitochondrial membrane potential measured by MitoTracker staining: (n = 3); for mitochondrial membrane potential measured by MitoTracker staining: Figure 7F; for mitochondrial membrane potential in Th9 cells: Figure 7J, one per column (n = 4)
Description: […] Cells were incubated with the respective dyes, washed, and subjected to flow cytometry or fluorescence microscopy analysis. For ultrastructural assessment, mitochondrial number and diameter were quantified from high-resolution transmission electron microscopy (TEM) images using ImageJ software.

[3] = EpA + fatostatin, result in words
[4] = EpA + ERKin combination, individual replicates
[5] = EpA + MEKin combination, individual replicates
[6] = single agent, individual replicates
[7] = single agent, 10 µM, individual replicates
[8] = EpA vs control, adjusted P < 0.05, fold change ≥1.5
[9] = Th9, day 4, samples EPA_1 to EPA_3

anteiso-C15 Leu7 surfactin [EpA]
TNF-α production (TNF-α in Th9 cells; [3]): elevated in the combination group
MFI of TNF-α (TNF-α in Th9 cells; EpA-treated Th9 cells, individual replicates, n = 6): 2286 and 2180 and 2244 and 2177 and 2115 and 2169
TNF (flow cytometric quantification) (TNF-α in Th9 cells; [4]): 2696 and 2174 and 2281 and 2032 and 1920
TNF (flow cytometric quantification) (TNF-α in Th9 cells; [5]): 1415 and 1401 and 1417 and 1456 and 1441
TNF (flow cytometric quantification) (TNF-α in Th9 cells; [6]): 2873 and 2973 and 3771 and 3384 and 2525
TNF expression in Th9 cells (TNF-α in Th9 cells; EpA (10 µM) + Fatostatin (10 µM), individual replicates): 3879 and 3735 and 3908 and 3188
TNF expression in Th9 cells (TNF-α in Th9 cells; [7]): 2951 and 2896 and 2950 and 2779
TNF-α expression of Th9 cells (TNF-α in Th9 cells; MigR1, replicate 1): 2796
TNF-α expression of Th9 cells (TNF-α in Th9 cells; MigR1, replicate 2): 2837
TNF-α expression of Th9 cells (TNF-α in Th9 cells; MigR1, replicate 3): 2787
TNF-α expression of Th9 cells (TNF-α in Th9 cells; SREBP1, replicate 1): 2060
TNF-α expression of Th9 cells (TNF-α in Th9 cells; SREBP1, replicate 2): 1962
TNF-α expression of Th9 cells (TNF-α in Th9 cells; SREBP1, replicate 3): 1934
EpA-induced TNF-α increase (protein) upon SREBP1 overexpression (TNF-α in Th9 cells; result in words): markedly suppressed
Fads1 expression [1, 3]: reduced expression
Srebp1 expression [1, 3]: reduced expression
number of downregulated genes [1, 8]: 271
number of upregulated genes [1, 8]: 228
cluster 2 genes (calcium ion transport, glycolysis, oxidative phosphorylation, ERK signaling) ([1]; result in words): notably upregulated
lipid biosynthesis genes ([1]; result in words): progressively downregulated
Fpkm of Slc2a1 ([1]; replicate 1): 48.3562 Fpkm
Fpkm of Slc2a1 ([1]; replicate 2): 48.7446 Fpkm
Fpkm of Slc2a1 ([1]; replicate 3): 49.9027 Fpkm
Batf expression (RNA-seq) [1, 9]: 93.0998 and 96.722 and 96.1164
Fasl expression (RNA-seq) [1, 9]: 9.708 and 9.458 and 10.2176
Il4 expression (RNA-seq) [1, 9]: 8.523 and 8.979 and 8.835
Il5 expression (RNA-seq) [1, 9]: 0.7687 and 0.6368 and 0.9066
Il9 expression (RNA-seq) [1, 9]: 619.89 and 651.961 and 648.029
Il13 expression (RNA-seq) [1, 9]: 15.584 and 17.9728 and 14.2881
Lta expression (RNA-seq) [1, 9]: 41.371 and 42.2064 and 41.7705
Tnf expression (RNA-seq) [1, 9]: 5.46 and 5.834 and 6.11
Tnfsf9 expression (RNA-seq) [1, 9]: 1.423 and 1.362 and 1.3365
Tnfsf14 expression (RNA-seq) [1, 9]: 5.499 and 5.503 and 5.511
Tnfsf15 expression (RNA-seq) [1, 9]: 0.1165 and 0.1206 and 0.07294
SLC2A1 expression ([1]; result in words): markedly upregulated
Th9 cytokines (Il9, Il4, Il5, Il13) and Spi1, Batf expression ([1]; result in words): upregulated
cytotoxic effector molecules Tnf, Lta, Fasl ([1]; result in words): strong upregulation
MitoTracker Deep Red ([2]; Figure 4M, individual replicates, (n = 5)): 2580000 and 2400000 and 2450000 and 2490000 and 2480000
Mito tracker (flow cytometric quantification) [2, 4]: 2055 and 2045 and 2104
Mito tracker (flow cytometric quantification) [2, 5]: 2331 and 2453 and 2355
Mito tracker (flow cytometric quantification) [2, 6]: 1845 and 1728 and 1865
mitochondrial membrane potential measured by MitoTracker staining ([2]; EpA + Fato combination, individual replicates): 1707 and 1737 and 1699
mitochondrial membrane potential measured by MitoTracker staining [2, 6]: 1400 and 1434 and 1409
mitochondrial membrane potential in Th9 cells ([2]; MigR1 vector, individual replicates): 5844 and 5817 and 5963 and 6149
mitochondrial membrane potential in Th9 cells ([2]; Srebf1 (overexpressing SREBP1), individual replicates): 5503 and 5279 and 5218 and 5340
mitochondrial membrane potential ([2]; MEK/ERK inhibition in EpA-treated Th9 cells, MitoTracker, result in words): paradoxical increase in mitochondrial membrane potential
mitochondrial membrane potential ([2]; SREBP1 inhibition (fatostatin) in EpA-Th9, result in words): further augmented
EpA-induced mitochondrial membrane potential upon SREBP1 overexpression ([2]; result in words): abolished
mitochondrial integrity ([2]; result in words): improved mitochondrial integrity

CCCc1cc(-c2nc(-c3ccc(C)cc3)cs2)ccn1 [fatostatin, fatostatin hydrobromide, reference compound]
TNF expression in Th9 cells (TNF-α in Th9 cells; [7]): 2574 and 2507 and 2536 and 2484
cluster 2 genes (calcium ion transport, glycolysis, oxidative phosphorylation, ERK signaling) ([1]; result in words): further enhanced
lipid biosynthesis genes ([1]; result in words): further suppressed
mitochondrial membrane potential measured by MitoTracker staining [2, 6]: 1160 and 1151 and 1173

— article PMC12867150, “A fungi-derived cyclic peptide enhances Th9-mediated antitumor immunity by targeting ZAP70 and SREBP1” (The Journal of Clinical Investigation, 2025)
